Results published in patent US7358359B2, “Antibacterial agents” (University of Washington, priority 2003, dated 2008).
≈ marks a conversion by molar mass, not a printed value. Like-named read-outs stand apart in the source and are kept apart here.

How the values were obtained:
P. aeruginosa LpxC = biological target: T1, P. aeruginosa LpxC (Pseudomonas aeruginosa, UniProt P47205); assay: P. aeruginosa LpxC Inhibition Assay; type: biochemical
T1 sequence (P47205 1-303): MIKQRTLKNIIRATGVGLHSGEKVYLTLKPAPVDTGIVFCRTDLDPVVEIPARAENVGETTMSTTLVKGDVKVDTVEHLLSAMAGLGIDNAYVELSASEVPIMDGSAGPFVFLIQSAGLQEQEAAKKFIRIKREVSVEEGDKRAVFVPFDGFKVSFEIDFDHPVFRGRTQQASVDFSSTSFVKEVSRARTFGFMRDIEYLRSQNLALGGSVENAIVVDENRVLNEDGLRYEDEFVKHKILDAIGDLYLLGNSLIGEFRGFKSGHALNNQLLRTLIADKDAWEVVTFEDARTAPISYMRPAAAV
Experimental: The assay followed the general method of Hyland et al (Journal of Bacteriology 1997 179, 2029-2037: Cloning, expression and purification of UDP-3-O-acyl-GlcNAc deacetylase from Pseudomonas aeruginosa: a metalloamidase of the lipid A biosynthesis pathway) and the radiolabeling procedure is according to Kline et al. supra. Briefly, samples were incubated with 2 nM P. aeruginosa LpxC and 150 nM [3H-Ac]-UDP-3-OR-3-hydroxydecanoyl)-GlcNAc in a total volume of 50 uL for 90 min at room temperature. Reactions were carried out in 96-well polypropylene plates in 50 mM sodium phosphate buffer, pH 7.5, containing 1 mg/mL BSA. Reactions were stopped by the addition of 180 uL of a 3% suspension of activated charcoal powder in 100 mM sodium acetate, pH 7.5. Supernatants were clarified by centrifugation. A portion of the clarified supernatant, containing the enzymatically released [3H]-acetate, was transferred to opaque white 96-well plates containing scintillation fluid. The radioactivity was measured in a Perkin-Elmer/Wallac Trilux Microbeta counter.

P. aeruginosa 27853 = assay: MIC broth microdilution, standard panel: P. aeruginosa 27853; type: cell-based; conditions: Pseudomonas aeruginosa, standard panel of organisms
Experimental: (§1) Bacterial isolates were cultivated from −70° C. frozen stocks by two consecutive overnight passages at 35° C. in ambient air on 5% blood agar (Remel, Lenexa, Kans.). Clinical isolates tested were from a collection composed of isolates collected during clinical trials and recent clinical isolates obtained from various geographically diverse hospitals in the US. Quality control and primary panel strains were from the American Type Culture Collection (ATCC; Rockville, Md.), with the exception of P. aeruginosa PAO200, a strain with a deletion of the mexABoprM genes that was received from Dr. H. Schweizer. […] Strain Z61 (ATCC 35151) is also hypersusceptible to antibacterials. It is thought that the hypersusceptibility of this strain is the result of increased permeability of its outer membrane (Angus B L et al, Antimicrobial Agents and Chemotherapy 1982 21,299-309: Outer membrane permeability in Pseudomonas aeruginosa: Comparison of a wild-type with an antibacterial-supersusceptible mutant).
(§2) Minimum Inhibitory Concentrations (MICs) were determined by the broth microdilution method in accordance with the National Committee for Clinical Laboratory Standards (NCCLS) guidelines. In brief, organism suspensions were are adjusted to a 0.5 McFarland standard to yield a final inoculum between 3×10^5 and 7×10^5 colony-forming units (CFU)/mL. Drug dilutions and inocula were made in sterile, cation adjusted Mueller-Hinton Broth (Remel). An inoculum volume of 100 μl was added to wells containing 100 μl of broth with 2-fold serial dilutions of drug. All inoculated microdilution trays were incubated in ambient air at 35° C. for 18-24 hours. Following incubation, the lowest concentration of the drug that prevented visible growth was recorded as the MIC. Performance of the assay was monitored by the use of laboratory quality-control strains against tobramycin, that has a defined MIC spectrum, in accordance with NCCLS guidelines.

E. coli 25922 = assay: MIC broth microdilution, standard panel: E. coli 25922; type: cell-based; conditions: Escherichia coli, standard panel of organisms
Experimental: as §1, §2

S. aureus 29213 = assay: MIC broth microdilution, standard panel: S. aureus 29213; type: cell-based; conditions: Staphylococcus aureus, standard panel of organisms
Experimental: as §1, §2

[1] = tested on: P. aeruginosa PAO200 mexAB; assay: MIC broth microdilution, standard panel: P. aeruginosa PAO200 mexAB; type: cell-based; conditions: Pseudomonas aeruginosa, PAO200MEXAB, read-out: MIC P. aeruginosa PAO200 mexAB
Experimental: as §1, §2

[2] = tested on: Pseudomonas aeruginosa cystic fibrosis isolate 3198; assay: MIC vs cystic fibrosis isolate of P. aeruginosa 3198 (sensitive to most antibacterials); type: cell-based; conditions: strain 3198, Sensitive, LpxC inhibitors, MIC key class
Experimental: (§3) Bacterial isolates were cultivated from −70° C. frozen stocks by two consecutive overnight passages at 35° C. in ambient air on 5% blood agar (Remel, Lenexa, Kans.). Clinical isolates tested were from a collection composed of isolates collected during clinical trials and recent clinical isolates obtained from various geographically diverse hospitals in the US. Quality control and primary panel strains were from the American Type Culture Collection (ATCC; Rockville, Md.), with the exception of P. aeruginosa PAO200, a strain with a deletion of the mexABoprM genes that was received from Dr. H. Schweizer.
as §2, with “MIC.” for “MIC. Performance of the assay was monitored by the use of laboratory quality-control strains against tobramycin, that has a defined MIC spectrum, in accordance with NCCLS guidelines.”

[3] = tested on: Pseudomonas aeruginosa cystic fibrosis isolate 3224; assay: MIC vs cystic fibrosis isolate of P. aeruginosa 3224; type: cell-based; conditions: strain 3224, Tobra R, LpxC inhibitors, MIC key class
Experimental: as §3
as §2, with “MIC.” for “MIC. Performance of the assay was monitored by the use of laboratory quality-control strains against tobramycin, that has a defined MIC spectrum, in accordance with NCCLS guidelines.”

[4] = tested on: Pseudomonas aeruginosa cystic fibrosis isolate 3317; assay: MIC vs cystic fibrosis isolate of P. aeruginosa 3317 (resistant to aztreonam); type: cell-based; conditions: strain 3317, Aztr. R, LpxC inhibitors, MIC key class
Experimental: as §3
as §2, with “MIC.” for “MIC. Performance of the assay was monitored by the use of laboratory quality-control strains against tobramycin, that has a defined MIC spectrum, in accordance with NCCLS guidelines.”

Burkholderia cepacia = assay: MIC vs non-fermenting organisms: Burkholderia cepacia; type: cell-based; conditions: Burkholderia cepacia, B. cepacia; MIC key class; read-out: MIC
Experimental: as §3
as §2, with “MIC.” for “MIC. Performance of the assay was monitored by the use of laboratory quality-control strains against tobramycin, that has a defined MIC spectrum, in accordance with NCCLS guidelines.”

[5] = tested on: Stenotrophomonas maltophilia; assay: MIC vs non-fermenting organisms: Stenotrophomonas maltophilia; type: cell-based; conditions: Stenotrophomonas maltophilia, S. malt.; MIC key class; read-out: MIC
Experimental: as §3
as §2, with “MIC.” for “MIC. Performance of the assay was monitored by the use of laboratory quality-control strains against tobramycin, that has a defined MIC spectrum, in accordance with NCCLS guidelines.”

Enterobacter aerogenes = assay: MIC vs enteric organisms: Enterobacter aerogenes; type: cell-based; conditions: Klebsiella aerogenes; E. aer.; MIC key class
Experimental: as §3
as §2, with “MIC.” for “MIC. Performance of the assay was monitored by the use of laboratory quality-control strains against tobramycin, that has a defined MIC spectrum, in accordance with NCCLS guidelines.”

Klebsiella pneumoniae = assay: MIC vs enteric organisms: Klebsiella pneumoniae; type: cell-based; conditions: K. pneu., MIC key class
Experimental: as §3
as §2, with “MIC.” for “MIC. Performance of the assay was monitored by the use of laboratory quality-control strains against tobramycin, that has a defined MIC spectrum, in accordance with NCCLS guidelines.”

Klebsiella oxytoca = assay: MIC vs enteric organisms: Klebsiella oxytoca; type: cell-based; conditions: K. oxy., MIC key class
Experimental: as §3
as §2, with “MIC.” for “MIC. Performance of the assay was monitored by the use of laboratory quality-control strains against tobramycin, that has a defined MIC spectrum, in accordance with NCCLS guidelines.”

Proteus mirabilis = assay: MIC vs enteric organisms: Proteus mirabilis; type: cell-based; conditions: P. mir., MIC key class
Experimental: as §3
as §2, with “MIC.” for “MIC. Performance of the assay was monitored by the use of laboratory quality-control strains against tobramycin, that has a defined MIC spectrum, in accordance with NCCLS guidelines.”

Serratia marcescens = assay: MIC vs enteric organisms: Serratia marcescens; type: cell-based; conditions: S. marc., MIC key class
Experimental: as §3
as §2, with “MIC.” for “MIC. Performance of the assay was monitored by the use of laboratory quality-control strains against tobramycin, that has a defined MIC spectrum, in accordance with NCCLS guidelines.”

[6] = 2 nM P. aeruginosa LpxC, 90 min, room temperature, read-out: IC50 (nM), Enzyme inhibitory activity

Row | Structure (SMILES) | IC50 (P. aeruginosa LpxC) [nM] | MIC (P. aeruginosa 27853) [mg/L] | MIC (E. coli 25922) [mg/L] | MIC (S. aureus 29213) [mg/L] | MIC [1] [mg/L] | MIC [2] [mg/L] | MIC [3] [mg/L] | MIC [4] [mg/L] | MIC (Burkholderia cepacia) [mg/L] | MIC [5] [mg/L] | MIC (Enterobacter aerogenes) [mg/L] | MIC (Klebsiella pneumoniae) [mg/L] | MIC (Klebsiella oxytoca) [mg/L] | MIC (Proteus mirabilis) [mg/L] | MIC (Serratia marcescens) [mg/L] | IC50 (P. aeruginosa LpxC; [6]) [nM]
1 | C[C@@H](O)[C@H](NC(=O)c1ccc(C#Cc2ccccc2)cc1)C(=O)NO [Example 12, N-(1-(N-hydroxycarbamoyl)(1S,2R)-2-hydroxypropyl)[4-(2-phenylethynyl)phenyl]carboxamide] | < 100 | < 6.25 | < 6.25 | > 50 | < 6.25 | < 6.25 | < 6.25 | < 6.25 | 6.25 to 50 (≈ 18.5 to 148 µM) | < 6.25 | > 50 | < 6.25 | < 6.25 | < 6.25 | < 6.25 | –
2 | C[C@@H](N)[C@H](NC(=O)c1ccc(C#Cc2ccccc2)cc1)C(=O)NO [Example 13] | < 100 | < 6.25 | < 6.25 | > 50 | < 6.25 | < 6.25 | < 6.25 | < 6.25 | < 6.25 | 6.25 to 50 (≈ 18.5 to 148 µM) | > 50 | < 6.25 | < 6.25 | < 6.25 | < 6.25 | –
3 | C[C@@H](O)[C@H](NC(=O)c1ccc(C#CC#Cc2ccccc2)cc1)C(=O)NO [Example 19, N-(1-(N-hydroxycarbamoyl)(1S,2R)-2-hydroxypropyl)[4-(4-phenylbuta-1,3-diynyl)phenyl]carboxamide] | < 100 | < 6.25 | < 6.25 | 6.25 to 50 (≈ 17.2 to 138 µM) | < 6.25 | < 6.25 | < 6.25 | < 6.25 | 6.25 to 50 (≈ 17.2 to 138 µM) | 6.25 to 50 (≈ 17.2 to 138 µM) | < 6.25 | < 6.25 | < 6.25 | < 6.25 | < 6.25 | –
4 | CCc1ccc(-c2ccc(C(=O)N[C@@H](CN)C(=O)NO)cc2)cc1 [Example 280, N-[(1S)-1-(aminomethyl)-2-(hydroxyamino)-2-oxoethyl]-4′-ethyl-1,1-biphenyl-4-carboxamide] | – | < 6.25 | < 6.25 | > 50 | < 6.25 | < 6.25 | < 6.25 | < 6.25 | 6.25 to 50 (≈ 19.1 to 153 µM) | 6.25 to 50 (≈ 19.1 to 153 µM) | > 50 | 6.25 to 50 (≈ 19.1 to 153 µM) | > 50 | 6.25 to 50 (≈ 19.1 to 153 µM) | 6.25 to 50 (≈ 19.1 to 153 µM) | < 100
5 | C[C@@H](O)[C@H](NC(=O)c1ccc(-c2ccc(Br)cc2)cc1)C(=O)NO [Example 315, 4′-bromo-N-{(1S,2R)-2-hydroxy-1-[(hydroxyamino)carbonyl]propyl}-1,1′-biphenyl-4-carboxamide] | – | < 6.25 | < 6.25 | > 50 | < 6.25 | < 6.25 | < 6.25 | < 6.25 | < 6.25 | < 6.25 | > 50 | > 50 | > 50 | > 50 | 6.25 to 50 (≈ 15.9 to 127 µM) | < 100
6 | NC[C@H](NC(=O)c1ccc(C#CC#Cc2ccccc2)cc1)C(=O)NO [Example 481, N-[(1S)-1-(aminomethyl)-2-(hydroxyamino)-2-oxoethyl]-4-(4-phenylbuta-1,3-diynyl)benzamide] | – | < 6.25 | < 6.25 | > 50 | < 6.25 | < 6.25 | < 6.25 | < 6.25 | 6.25 to 50 (≈ 18 to 144 µM) | > 50 | > 50 | < 6.25 | < 6.25 | < 6.25 | < 6.25 | < 100
7 | NC[C@H](NC(=O)c1ccc(C#Cc2ccc(NC(=O)CNC3CC3)cc2)cc1)C(=O)NO [Example 516, N-[(1S)-1-(aminomethyl)-2-(hydroxyamino)-2-oxoethyl]-4-[(4-{[(cyclopropylamino)acetyl]amino}phenyl)ethynyl]benzamide] | – | < 6.25 | < 6.25 | > 50 | < 6.25 | < 6.25 | < 6.25 | < 6.25 | > 50 | > 50 | > 50 | > 50 | > 50 | > 50 | < 6.25 | < 100
8 | C[C@@H](O)[C@H](NC(=O)c1ccc(C#CC#Cc2ccc(NC(=O)CNc3ccccc3)cc2)cc1)C(=O)NO [Example 777, N-{(1S,2R)-2-hydroxy-1-[(hydroxyamino)carbonyl]propyl}-4-[4-(4-{[(phenylamino)acetyl]amino}phenyl)buta-1,3-diynyl]benzamide] | – | < 6.25 | < 6.25 | > 50 | < 6.25 | < 6.25 | < 6.25 | < 6.25 | < 6.25 | > 50 | 6.25 to 50 (≈ 12.2 to 97.9 µM) | < 6.25 | < 6.25 | < 6.25 | < 6.25 | < 100
9 | CCc1ccc(-c2ccc(C(=O)N[C@H](C(=O)NO)[C@@H](C)N)cc2)cc1 [Example 779, N-{(1S,2R)-2-amino-1-[(hydroxyamino)carbonyl]propyl)-4′-ethyl-1,1′-biphenyl-4-carboxamide] | < 100 | < 6.25 | < 6.25 | > 50 | < 6.25 | < 6.25 | < 6.25 | < 6.25 | < 6.25 | 6.25 to 50 (≈ 18.3 to 146 µM) | > 50 | 6.25 to 50 (≈ 18.3 to 146 µM) | 6.25 to 50 (≈ 18.3 to 146 µM) | 6.25 to 50 (≈ 18.3 to 146 µM) | < 6.25 | –
